Reference: US20260216238A1, “TETRATHIOMOLYBDIC ACID FOR USE IN TREATING COPPER METABOLISM-ASSOCIATED DISEASES OR DISORDERS (WILSON DISEASE)” (Alexion Pharmaceuticals, Inc., priority 2023, published 2026)
Like-named read-outs stand apart in the source and are kept apart here.

How the values were obtained:
[1] = system: patients with Wilson disease (WD)
Description: This assessment is also applicable to SoC treatments. In addition, plasma Cp, CpC, plasma total copper, and LBC were measured with AUEC calculated for plasma total copper and LBC.
The LBC method measures exchangeable plasma copper that is not bound to either Cp or TPC.
Pharmacodynamics: Blood samples were collected to directly measure plasma total copper, PUF copper, dNCC, and LBC. Calculations may be performed for cNCC and cNCCcorrected, the latter of which is non-ceruloplasmin-bound and non-molybdenum-albumin-bound copper.

[2] = system: participants with WD
Excerpt: The term “dNCC” refers to NCC as directly measured using an NCC assay. For example, in certain embodiments of the methods, uses, or compositions (e.g., comprising tetrathiomolybdic acid or a pharmaceutically acceptable salt thereof) of the disclosure, dNCC is directly measured using the NCC assay as disclosed in PCT Patent Application Publication No. WO2021/050850, filed on Sep.
These participants had all intake (food and drink) and output (urine and feces) collected from Day −4 through Day −1 (baseline), from Day 1 through Day 8, and Day 25 through Day 39.

[3] = system: patients with Wilson disease (WD); assay: Unified Wilson Disease Rating Scale (UWDRS) Part II total score (disability); type: in vivo, human; settings: for UWDRS Part II (0-40) change from baseline, Mean (SD): pooled Studies 301 and 201; for UWDRS Part II (0-40) change from baseline, LSM / UWDRS Part II (0-40) change from baseline, Mean: Study 301 TTM long term set
Excerpt: Unified Wilson Disease Rating Scale (Parts I, II, and III): The UWDRS is a clinical rating scale designed to evaluate the neurological manifestations of WD that generally can be divided into 3 movement disorder syndromes: dystonic, ataxic, and Parkinsonian syndrome. The UWDRS comprises 3 parts: UWDRS Part I (level of consciousness, item 1), UWDRS Part II (a patient-reported review of daily activity items [disability], items 2 to 11), and UWDRS Part III (a detailed neurological examination, items 12 to 34).
The UWDRS Part I and Part III were assessed by a neurologist who is blinded to the treatment randomization, while UWDRS Part II may be reported to a non-blinded member of the study team by the patient, family member, or caregiver. The UWDRS has not been formally evaluated in adolescents. However, the components of Part I (level of consciousness), Part II (patient or caregiver-reported disability) and Part III (neurologic examination findings) were not fundamentally different between adults and adolescents. Patients aged 12 years and older were expected to be able to comply with UWDRS assessments.
Pooled results from all such participants will be integrated together into one timeline to allow analyses of changes in UWDRS, long-term copper control, and long-term safety laboratory data.

[4] = human, in vivo

bis-choline tetrathiomolybdate [TTM]
AUEC(0-48 week) LBC, Mean ([1]; Adolescent): 1.5 mmol/L | AUEC(0-48 week) LBC, Median ([1]; Adolescent): 1.2 mmol/L | AUEC(0-48 week) PTC (plasma total copper), Mean ([1]; Adolescent): 7.5 mmol/L | AUEC(0-48 week) PTC (plasma total copper), Median ([1]; Adolescent): 5.4 mmol/L | AUEC(0-48 week) dNCC, Mean ([1]; Adolescent): 2.7 mmol/L | AUEC(0-48 week) dNCC, Median ([1]; Adolescent): 2.3 mmol/L | AUEC(0-48 week) LBC, Mean ([1]; Adult): 1.8 mmol/L | AUEC(0-48 week) LBC, Median ([1]; Adult): 1.2 mmol/L | AUEC(0-48 week) PTC (plasma total copper), Mean ([1]; Adult): 7.8 mmol/L | AUEC(0-48 week) PTC (plasma total copper), Median ([1]; Adult): 7.3 mmol/L | AUEC(0-48 week) dNCC, Mean ([1]; Adult): 3.2 mmol/L | AUEC(0-48 week) dNCC, Median ([1]; Adult): 2.2 mmol/L | Increase from Baseline in Directly Measured NCC, Mean ([2]; Day 1, 2 Hours Post-Dose): 0.5004 µmol/L | Increase from Baseline in Directly Measured NCC, Mean ([2]; Day 1, 4 Hours Post-Dose): 1.96 µmol/L | Increase from Baseline in Directly Measured NCC, Mean ([2]; Day 1, 5 Hours Post-Dose): 2.719 µmol/L | Increase from Baseline in Directly Measured NCC, Mean ([2]; Day 1, 6 Hours Post-Dose): 2.324 µmol/L | Increase from Baseline in Directly Measured NCC, Mean ([2]; Day 1, 8 Hours Post-Dose): 2.402 µmol/L | Increase from Baseline in Directly Measured NCC, Mean ([2]; Day 1, 12 Hours Post-Dose): 1.725 µmol/L | Increase from Baseline in Directly Measured NCC, Mean ([2]; Day 1, 24 Hours Post-Dose): 1.063 µmol/L | Increase from Baseline in Directly Measured NCC, Mean ([2]; Day 4, Pre-Dose): 2.677 µmol/L | Increase from Baseline in Directly Measured NCC, Mean ([2]; Day 5, Pre-Dose): 3.144 µmol/L | Increase from Baseline in Directly Measured NCC, Mean ([2]; Day 6, Pre-Dose): 3.574 µmol/L | Increase from Baseline in Directly Measured NCC, Mean ([2]; Day 7, Pre-Dose): 3.7 µmol/L | Increase from Baseline in Directly Measured NCC, Mean ([2]; Day 25, 2 Hours Post-Dose): 2.551 µmol/L | Increase from Baseline in Directly Measured NCC, Mean ([2]; Day 25, 4 Hours Post-Dose): 3.443 µmol/L | Increase from Baseline in Directly Measured NCC, Mean ([2]; Day 25, 5 Hours Post-Dose): 3.38 µmol/L | Increase from Baseline in Directly Measured NCC, Mean ([2]; Day 25, 6 Hours Post-Dose): 4.44 µmol/L | Increase from Baseline in Directly Measured NCC, Mean ([2]; Day 25, 8 Hours Post-Dose): 5.101 µmol/L | Increase from Baseline in Directly Measured NCC, Mean ([2]; Day 25, 12 Hours Post-Dose): 4.917 µmol/L | Increase from Baseline in Directly Measured NCC, Mean ([2]; Day 25, 24 Hours Post-Dose): 3.438 µmol/L | Increase from Baseline in Directly Measured NCC, Mean ([2]; Day 25, −0.5 Hours): 2.121 µmol/L | Increase from Baseline in Directly Measured NCC, Mean ([2]; Day 27, Pre-Dose, N=2): 2.767 µmol/L | Increase from Baseline in Directly Measured NCC, Mean ([2]; Day 28, Pre-Dose, N=2): 2.327 µmol/L | Increase from Baseline in Directly Measured NCC, Mean ([2]; Day 29, 2 Hours Post-Dose): 2.814 µmol/L | Increase from Baseline in Directly Measured NCC, Mean ([2]; Day 29, 4 Hours Post-Dose): 3.38 µmol/L | Increase from Baseline in Directly Measured NCC, Mean ([2]; Day 29, 5 Hours Post-Dose): 4.078 µmol/L | Increase from Baseline in Directly Measured NCC, Mean ([2]; Day 29, 6 Hours Post-Dose): 4.686 µmol/L | Increase from Baseline in Directly Measured NCC, Mean ([2]; Day 29, 8 Hours Post-Dose): 5.305 µmol/L | Increase from Baseline in Directly Measured NCC, Mean ([2]; Day 29, 12 Hours Post-Dose): 4.749 µmol/L | Increase from Baseline in Directly Measured NCC, Mean ([2]; Day 29, 24 Hours Post-Dose): 3.543 µmol/L | Increase from Baseline in Directly Measured NCC, Mean ([2]; Day 29, −0.5 Hours): 2.662 µmol/L | Increase from Baseline in Directly Measured NCC, Mean ([2]; Day 31, Pre-Dose, N=2): 4.121 µmol/L | Increase from Baseline in Directly Measured NCC, Mean ([2]; Day 32, Pre-Dose, N=1): 8.131 µmol/L | Increase from Baseline in Directly Measured NCC, Mean ([2]; Day 33, Pre-Dose, N=2): 4.231 µmol/L | Increase from Baseline in Directly Measured NCC, Mean ([2]; Day 34, Pre-Dose, N=2): 4.103 µmol/L | Increase from Baseline in Directly Measured NCC, Mean ([2]; Day 35, Pre-Dose, N=2): 4.49 µmol/L | Increase from Baseline in Directly Measured NCC, Mean ([2]; Day 36, Pre-Dose, N=2): 3.465 µmol/L | Increase from Baseline in Directly Measured NCC, Mean ([2]; Day 37, Pre-Dose, N=2): 4.168 µmol/L | Increase from Baseline in Directly Measured NCC, Mean ([2]; Day 38, Pre-Dose, N=1): 7.643 µmol/L | Increase from Baseline in Directly Measured NCC, Mean ([2]; Day 39, 2 Hours Post-Dose): 3.816 µmol/L | Increase from Baseline in Directly Measured NCC, Mean ([2]; Day 39, 4 Hours Post-Dose): 5.578 µmol/L | Increase from Baseline in Directly Measured NCC, Mean ([2]; Day 39, 5 Hours Post-Dose): 6.26 µmol/L | Increase from Baseline in Directly Measured NCC, Mean ([2]; Day 39, 6 Hours Post-Dose): 6.659 µmol/L | Increase from Baseline in Directly Measured NCC, Mean ([2]; Day 39, 8 Hours Post-Dose): 7.32 µmol/L | Increase from Baseline in Directly Measured NCC, Mean ([2]; Day 39, 12 Hours Post-Dose): 6.554 µmol/L | Increase from Baseline in Directly Measured NCC, Mean ([2]; Day 39, 24 Hours Post-Dose): 4.545 µmol/L | Increase from Baseline in Directly Measured NCC, Mean ([2]; Day 39, −0.5 Hours): 3.412 µmol/L | UWDRS Part II score change (mean) ([3]; 0-48W, symptomatic patients): −1.7 | UWDRS Part II (0-40), Change from Baseline at 48 weeks, LSM ([3]; Study 301 Full Analysis Set): −0.1 | UWDRS Part II (0-40), Change from Baseline at 48 weeks, Mean ([3]; Study 301 Full Analysis Set): −0.6 | UWDRS Part II (0-40) change from baseline, Mean (SD) ([3]; TTM exposure 4 weeks): −0.3 (2.28) | UWDRS Part II (0-40) change from baseline, Mean (SD) ([3]; TTM exposure 12 weeks): −0.4 (2.76) | UWDRS Part II (0-40) change from baseline, Mean (SD) ([3]; TTM exposure 24 weeks): −0.4 (3.42) | UWDRS Part II (0-40) change from baseline, Mean (SD) ([3]; TTM exposure 36 weeks): −0.9 (4.11) | UWDRS Part II (0-40) change from baseline, Mean (SD) ([3]; TTM exposure 48 weeks): −1.2 (4.24) | UWDRS Part II (0-40) change from baseline, Mean (SD) ([3]; TTM exposure 60 weeks): −1.4 (4.35) | UWDRS Part II (0-40) change from baseline, Mean (SD) ([3]; TTM exposure 72 weeks): −1.9 (4.74) | UWDRS Part II (0-40) change from baseline, Mean (SD) ([3]; TTM exposure 96 weeks): −2.5 (6.11) | UWDRS Part II (0-40) change from baseline, Mean (SD) ([3]; TTM exposure 120 weeks): −3.1 (6.82) | UWDRS Part II (0-40) change from baseline, Mean (SD) ([3]; TTM exposure 144 weeks): −3.3 (6.61) | UWDRS Part II (0-40) change from baseline, Mean (SD) ([3]; TTM exposure 168 weeks): −6.2 (10.17) | UWDRS Part II (0-40) change from baseline, Mean (SD) ([3]; TTM exposure 192 weeks): −5.9 (9.88) | UWDRS Part II (0-40) change from baseline, Mean (SD) ([3]; TTM exposure 216 weeks): −7.1 (10.90) | UWDRS Part II (0-40) change from baseline, Mean (SD) ([3]; TTM exposure 240 weeks): −6.6 (10.09) | UWDRS Part II (0-40) change from baseline, Mean (SD) ([3]; TTM exposure 264 weeks): −6.2 (9.02) | UWDRS Part II (0-40), Difference at 48 weeks, LSM ([3]; TTM vs SoC, P 0.4430): 0.4 | UWDRS Part II (0-40) change from baseline, LSM ([3]; Week 24): −0.4 | UWDRS Part II (0-40) change from baseline, Mean ([3]; Week 24): −0.3 | UWDRS Part II (0-40) change from baseline, LSM ([3]; Week 48): −0.7 | UWDRS Part II (0-40) change from baseline, Mean ([3]; Week 48): −0.7 | UWDRS Part II (0-40) change from baseline, LSM ([3]; Week 72): −1.0 | UWDRS Part II (0-40) change from baseline, Mean ([3]; Week 72): −1.2 | UWDRS Part II (0-40) change from baseline, LSM ([3]; Week 96): −1.1 | UWDRS Part II (0-40) change from baseline, Mean ([3]; Week 96): −1.1 | UWDRS Part II (0-40) change from baseline, LSM ([3]; Week 120): −1.7 | UWDRS Part II (0-40) change from baseline, Mean ([3]; Week 120): −1.4 | UWDRS Part II (0-40) change from baseline, LSM ([3]; Week 144): −2.0 | UWDRS Part II (0-40) change from baseline, Mean ([3]; Week 144): −2.0 | effect of age on plasma total molybdenum clearance [4]: not a significant covariate
